From patent publication US20130131121A1, “ANTI-VIRAL AGENT” (priority 2007, published 2013)
≈ marks a conversion by molar mass, not a printed value.

Key:
[1] = tested on: human cytomegalovirus (HCMV); test: Suppression of HCMV virus production in infected MRC-5 cells (plaque technique); assay type: cell-based; conditions: for EC50: Human betaherpesvirus 5, MRC5, HCMV proliferation in MRC-5 cells, read-out: EC50 (50% effective concentration); for SI (selection index): IC50/EC50
[2] = Cytotoxicity (IC50) of components separated from Kumazasa extract; conditions: human, MRC-5 human fetal lung fibroblast cells
in vitro = conditions: human
[3] = tested on: influenza type A virus (A/Hiroshima/52/2005, H3N2); test: Plaque technique in MDCK cells, influenza type A virus; assay type: cell-based; conditions: tricin concentration of 0.3 μg/ml
[4] = tested on: influenza type B virus (B/Malaysia/2506/2004); test: Plaque technique in MDCK cells, influenza type B virus; assay type: cell-based; conditions: tricin concentration of 0.3 μg/ml

Nc1nc(O)c2ncn(COC(CO)CO)c2n1 [Ganciclovir, reference compound]
EC50 [1]: 0.3 to 0.8 mg/L (≈ 1.18 to 3.13 µM)

Oc1cccnc1 [3-hydroxy pyridine, 3-hydroxypyridine]
EC50 [1]: 3.4 mg/L (≈ 35.8 µM) | SI (selection index) [1]: 77.4 | IC50 [2]: 263 mg/L (≈ 2770 µM)

O=Cc1ccc(O)cc1 [p-hydroxybenzaldehyde]
EC50 [1]: 12.8 mg/L (≈ 105 µM) | SI (selection index) [1]: 23.8 | IC50 (in vitro): 305 mg/L (≈ 2500 µM)

COc1cc(-c2cc(=O)c3c(O)cc(O)cc3o2)cc(OC)c1O [Tricin, 5,7,4′-trihydroxy-3′,5′-dimethoxyflavone]
EC50 [1]: 1.7 mg/L (≈ 5.15 µM) | SI (selection index) [1]: 1205.8 | proliferation of the virus (virus titer) ([1]; tricin concentration of 111 μg/ml, FIG. 4): virtually completely inhibited | proliferation suppression ratio (pt/pc×100%) [3]: 52% | proliferation suppression ratio (pt/pc×100%) [4]: 48% | IC50 [2]: 2050 mg/L (≈ 6210 µM)

COc1cc(C=O)ccc1O [Vanillin, vanillin]
EC50 [1]: 48 mg/L (≈ 315 µM) | SI (selection index) [1]: 4.5 | IC50 [2]: 215 mg/L (≈ 1410 µM)

O=C(O)/C=C/c1ccc(O)cc1 [p-coumaric acid, reference compound]
EC50 [1]: 8.2 mg/L (≈ 50 µM) | SI (selection index) [1]: 22.8 | IC50 [2]: 187 mg/L (≈ 1140 µM)
